Data published in US20240382497A1, “PROPHYLACTIC OR THERAPEUTIC AGENT FOR HYPOXIC INJURY, ISCHAEMIA-REPERFUSION INJURY AND INFLAMMATION, CELL PROTECTION AGENT FOR TRANSPLANTATION, AND BIO-PRESERVATION AGENT” (priority 2018, published 2024).

Key:
[1] = test system: Trpa1 knockout and littermate hetero mice; assay: Survival time in 4% oxygen of Trpa1 knockout mouse after odor presentation; assay type: in vivo; conditions: 271 μmol odor presented 10 min, versus saline
Description: The thiazoline-related compound (2MT) was presented for 10 min to about 3-month-old male Trpa1 knockout and littermate hetero mice. Thereafter, the mice were placed in a tight box in which the oxygen concentration was adjusted to 4%, and the survival time of the mice was measured up to 30 min at maximum. The odor was presented by placing a filter paper scented with 271 μmol of 2MT in the breeding cage. As a control, an experiment presenting a filter paper dropped with saline was also performed (no odor).

[2] = test system: C57/BL6N male mice; assay: Respiratory rate on odor presentation (pulse oximeter); assay type: in vivo, mouse; conditions: filter paper scented with 271 μmol odor, 20 min
Description: An influence of a thiazoline-related compound and an odor molecule that induces learned fear on the respiratory rate was analyzed. The respiratory rate was analyzed using a pulse oximeter (Mouse Oxplus; STARR Life Science). A pulse oximeter was attached to the neck of C57/BL6N male mice (about 3-month-old) from about 1 week before the test and the mice were acclimated by repeating this operation. The mice were anesthetized with pentobarbital (50 mg/kg, i.p.) 2 days before the test, and the neck hair was depilated with depilatory cream. On the day of testing, an oximeter probe was attached to the shaven neck. After confirming that the signal became stable, the no odor baseline was measured for 10 min, changes in the respiratory rate when the thiazoline-related compound (2MT) or neutral odor (Eugenol; Eug) was presented was measured for 20 min (each n=6). The odors were presented by placing filter papers scented with 271 μmol of odor in the test cage. The oximeter signal was obtained at 1 Hz.

[3] = test system: Male C57/BL6N mice; assay: Body surface temperature on odor presentation (thermography); assay type: in vivo, mouse; conditions: filter paper scented with 271 μmol odor, mean of 20 min, versus no odor
Description: An influence of a thiazoline-related compound and an odor molecule that induces learned fear on the body surface temperature was analyzed. Male C57/BL6N mice (about 3 months old) were anesthetized with pentobarbital (50 mg/kg, i.p.) 2-3 days before the test, and the back hair was depilated with depilatory cream. On the day of testing, each mouse was placed in a test cage and, after acclimation for 10 min, a filter paper scented with 271 μmol of a thiazoline-related compound (2-methyl-2-thiazoline; 2MT) or an odor molecule that induces learned fear (anisole) was presented in the test cage, and changes in the body surface temperature on the back were analyzed using a thermography camera (NEC Avio). The value of the body surface temperature change was calculated as the difference between the mean body surface temperature for 10min when water was presented and the mean body surface temperature for 20 min when each odor molecule was presented, and the change in the body surface temperature without odor was set to 0. […]
An influence of various thiazoline-related compounds on the body surface temperature was analyzed by a method similar to that in Example 1. As a control, an influence of an odor molecule that induces learned fear was also analyzed. […]

For CC1=NCCS1 [2MT, 2-methyl-2-thiazoline], the “survival time in 4% oxygen” value [1] was “did not increase significantly”, the respiratory rate [2] was “reduced the respiratory rate by about half” and the “changes in the body surface temperature” value [3] was “clear decrease in the body surface temperature”.
